How the values were obtained:
[1] = test system: NLRP3 inflammasome pathway (IL-1β); assay: PBMC assay: IL-1β release after LPS stimulation; assay type: cell-based; settings: human PBMCs, 100 ng/ml LPS for 6 hrs, MSD
Procedure: The activity of a compound according to the present invention can be assessed by in vitro methods.
(§1) Peripheral venous blood was collected from healthy individuals and human peripheral blood mononuclear cells (PBMCs) were isolated from blood by Ficoll-Histopaque (Sigma-Aldrich, A0561) density gradient centrifugation. After isolation, PBMCs were stored in liquid nitrogen for later use. Upon thawing, PBMC cell viability was determined in growth medium (RPMI media supplemented with 10% fetal bovine serum, 1% Pen-Strep and 1% L-glutamine). […] PBMCs were added at a density of 7.5×10^4 cells per well and incubated for 30 min in a 5% CO2 incubator at 37° C. LPS stimulation was performed by addition of 100 ng/ml LPS (final concentration, Invivogen, tlrl-smlps) for 6 hrs followed by collection of cellular supernatant and the analysis of IL-1β (μM) and TNF cytokines levels (μM) via MSD technology according to manufacturers' guidelines (MSD, K151A0H).

TNF = assay: PBMC assay: TNF cytokine level after LPS stimulation; assay type: cell-based; settings: human PBMCs, 100 ng/ml LPS for 6 hrs, MSD, read-out: TNFα EC50
Procedure: as §1

Row | SMILES | IC50 [1] [nM] | EC50 (TNF) [µM]
1 | CC(F)(F)c1ccc2c(=O)c(CC(=O)Nc3ccc4nncn4n3)nn(C3CC3)c2c1 [F-72] | 96 | 6.23
2 | CC(C)n1nc(CC(=O)Nc2ccc(=O)n(C)n2)c(=O)c2ccc(C(C)(F)F)cc21 [F-53] | 710 | 9.74
3 | CC(C)n1nc(CC(=O)N[C@H]2C[C@@](C)(O)C2)c(=O)c2ccc(Br)cc21 [F-3] | 123 | > 20
4 | CC(C)n1nc(CC(=O)Nc2cc3c(cn2)ncn3C)c(=O)c2ccc(C(F)(F)F)cc21 [F-44] | 4910 | > 20
5 | CCn1nc(CC(=O)Nc2ccc3nncn3n2)c(=O)c2ccc(C(F)(F)F)cc21 [F-56] | 530 | 18.5
6 | CC(C)n1nc(CC(=O)Nc2ccc3nccn3c2)c(=O)c2ccc(C(F)(F)F)cc21 [F-35] | 790 | 19.9
7 | CCn1nc(CC(=O)Nc2ccc3nccn3n2)c(=O)c2ccc(C(C)(F)F)cc21 [F-65] | 240 | 8.36
8 | Cc1nnc2n1C[C@H](NC(=O)Cc1nn(C(C)C)c3cc(C(F)(F)F)ccc3c1=O)CC2 (single isomer, unassigned) [F-12] | > 20000 | > 20
9 | CC(C)n1nc(CC(=O)Nc2ccc(=O)n(C)c2)c(=O)c2ccc(C(C)(F)F)cc21 [F-52] | 840 | 16.1
10 | CC(C)n1nc(CC(=O)N[C@H]2C[C@@](C)(O)C2)c(=O)c2ccc(C3CC3)cc21 [F-80] | 1210 | > 20
11 | CCn1nc(CC(=O)Nc2ccc3nncn3n2)c(=O)c2ccc(Br)cc21 [F-73] | 60 | > 20
12 | O=C(Cc1nn(C2CC2)c2cc(C3CC3)ccc2c1=O)Nc1ccc2nncn2c1 [F-59] | 370 | > 20
13 | CC(C)n1nc(CC(=O)Nc2ccn3ncnc3c2)c(=O)c2ccc(C(F)(F)F)cc21 [F-37] | 1650 | > 20
14 | CC(C)n1nc(CC(=O)Nc2ccn3ccnc3c2)c(=O)c2ccc(C(F)(F)F)cc21 [F-38] | 1750 | > 20
15 | CCn1nc(CC(=O)Nc2ccc3nncn3c2)c(=O)c2ccc(C(C)C)cc21 [F-69] | 166 | 17.4
16 | CC(C)n1nc(CC(=O)Nc2ccncn2)c(=O)c2ccc(C3CC3)cc21 [F-79, 2-(7-cyclopropyl-1-isopropyl-4-oxo-1,4-dihydrocinnolin-3-yl)-N-(pyrimidin-4-yl)acetamide] | – | 16.6
17 | O=C(Cc1nn(C2CC2)c2cc(C(F)(F)F)ccc2c1=O)Nc1ccc2nncn2c1 [F-63] | 270 | > 20
18 | CC(C)n1nc(CC(=O)NC2CC(C(C)(C)O)C2)c(=O)c2ccc(C(F)(F)F)cc21 (stereo not shown) [F-9] | 10200 | > 20
19 | CC(C)n1nc(CC(=O)Nc2ccc3ncn(C)c3n2)c(=O)c2ccc(C(F)(F)F)cc21 [F-54] | 685 | > 20
20 | CC(C)n1nc(CC(=O)Nc2ccc3nncn3c2)c(=O)c2ccc(Br)cc21 [F-4] | 71 | 9.56
21 | CC(C)n1nc(CC(=O)Nc2ccc3cnnn3c2)c(=O)c2ccc(C(F)(F)F)cc21 [F-40] | 2260 | 19.2
22 | CCn1nc(CC(=O)Nc2ccncn2)c(=O)c2ccc(C3CC3)cc21 [F-8] | 660 | 12.9
23 | Cc1nnc2n1C[C@@H](NC(=O)Cc1nn(C(C)C)c3cc(C(F)(F)F)ccc3c1=O)CC2 (single isomer, unassigned) [F-13] | 2700 | > 20
24 | Cc1nnc2n1CC(NC(=O)Cc1nn(C(C)C)c3cc(C(F)(F)F)ccc3c1=O)CC2 (stereo not shown) [F-11] | 4020 | > 20
25 | CCn1nc(CC(=O)N[C@H]2C[C@@](C)(OC(=O)Cc3nn(CC)c4cc(Br)ccc4c3=O)C2)c(=O)c2ccc(Br)cc21 [F-23] | > 10000 | > 10

Next, values leading:

Row | IC50 [1] [nM] | EC50 (TNF) [µM] | SMILES
26 | 166 | 7.11 | CC(C)n1nc(CC(=O)Nc2ccc3nncn3c2)c(=O)c2ccc(C3CC3)cc21 [F-81]
27 | 530 | > 20 | CC(C)n1nc(CC(=O)Nc2cn3cnnc3cn2)c(=O)c2ccc(C(F)(F)F)cc21 [F-112]
28 | 656 | > 20 | CC(C)n1nc(CC(=O)Nc2ccc3nc(C(F)(F)F)cn3c2)c(=O)c2ccc(C(F)(F)F)cc21 [F-131]
29 | 5620 | > 20 | CC(C)n1nc(CC(=O)Nc2cn3ccncc3n2)c(=O)c2ccc(C(F)(F)F)cc21 [F-126]
30 | 835 | > 20 | CC(C)n1nc(CC(=O)Nc2nc3c(Cl)cccn3n2)c(=O)c2ccc(C(F)(F)F)cc21 [F-117]
31 | > 20000 | > 20 | CC(C)n1nc(CC(=O)Nc2nc3ccc(Cl)cc3n2C)c(=O)c2ccc(C(F)(F)F)cc21 [F-89]
32 | > 20000 | > 20 | CC(C)n1nc(CC(=O)Nc2nc3cc(Br)ccc3n2C)c(=O)c2ccc(C(F)(F)F)cc21 [F-90]
33 | 1970 | > 20 | CC(C)n1nc(CC(=O)Nc2cn3cccnc3n2)c(=O)c2ccc(C(F)(F)F)cc21 [F-123]
34 | 3230 | > 20 | CC(C)n1nc(CC(=O)Nc2nc3ncc(Br)cn3n2)c(=O)c2ccc(C(F)(F)F)cc21 [F-129]
35 | 2400 | > 20 | CCS(=O)(=O)c1ccc2oc(NC(=O)Cc3nn(C(C)C)c4cc(C(F)(F)F)ccc4c3=O)nc2c1 [F-105]
36 | > 20000 | > 20 | CC(C)n1nc(CC(=O)Nc2ccc(C(F)(F)F)nn2)c(=O)c2ccc(C(F)(F)F)cc21 [F-84, 2-(1-isopropyl-4-oxo-7-(trifluoromethyl)-1,4-dihydrocinnolin-3-yl)-N-(6-(trifluoromethyl)pyridazine-3-yl)acetamide]
37 | 280 | 4.46 | O=C(Cc1nn(C2CC2)c2cc(C3CC3)ccc2c1=O)Nc1ccc2nncn2n1 [F-137]
38 | 660 | > 20 | Cc1ccn2nc(NC(=O)Cc3nn(C(C)C)c4cc(C(F)(F)F)ccc4c3=O)nc2n1 [F-128]
39 | 78 | > 20 | O=C(Cc1nn(C2CC2)c2cc(Br)ccc2c1=O)Nc1ccc2nncn2n1 [F-144]
40 | 143 | 4.88 | CC(C)c1ccc2c(=O)c(CC(=O)Nc3ccc4nncn4n3)nn(C3CC3)c2c1 [F-140]
41 | 109 | 7.58 | CC(C)n1nc(CC(=O)Nc2ccc3nncn3n2)c(=O)c2ccc(C(F)(F)F)cc21 [F-143]
42 | 354 | > 20 | Cc1ccn2nc(NC(=O)Cc3nn(C(C)C)c4cc(C(F)(F)F)ccc4c3=O)nc2c1 [F-122]

Row | IC50 [1] [nM] | EC50 (TNF) [µM] | SMILES
43 | 190 | > 20 | CC(C)n1nc(CC(=O)Nc2ccc3nncn3c2)c(=O)c2ccc(C(C)(F)F)cc21 [F-149, N-([1,2,4]triazolo[4,3-a]pyridin-6-yl)-2-(7-(1,1-difluoroethyl)-1-isopropyl-4-oxo-1,4-dihydrocinnolin-3-yl)acetamide]
44 | 860 | 11.2 | CC(C)n1nc(CC(=O)Nc2cc(F)[nH]c(=O)c2)c(=O)c2ccc(C(F)(F)F)cc21 [F-130, N-(6-fluoro-2-oxo-1,2-dihydropyridin-4-yl)-2-(1-isopropyl-4-oxo-7-(trifluoromethyl)-1,4-dihydrocinnolin-3-yl)acetamide]
45 | 2590 | > 20 | CC(C)n1nc(CC(=O)Nc2cc3ncccn3n2)c(=O)c2ccc(C(F)(F)F)cc21 [F-125]
46 | 13400 | > 20 | CC(C)n1nc(CC(=O)Nc2ccc(C(F)F)nn2)c(=O)c2ccc(C(F)(F)F)cc21 [F-87]
47 | > 20000 | > 20 | CCN1CC[C@@H](C)[C@@H](NC(=O)Cc2nn(C(C)C)c3cc(C(F)(F)F)ccc3c2=O)C1 (single isomer, unassigned) [F-88]
48 | 6030 | > 20 | CC(C)n1nc(CC(=O)Nc2nc3cc(Cl)ccc3o2)c(=O)c2ccc(C(F)(F)F)cc21 [F-102]
49 | 123 | > 20 | CC(C)n1nc(CC(=O)Nc2nc3cnccn3n2)c(=O)c2ccc(C(F)(F)F)cc21 [F-124]
50 | 119 | ~12.8 | CCn1nc(CC(=O)Nc2ccc3nncn3n2)c(=O)c2ccc(C(C)C)cc21 [F-142]
51 | 2180 | > 20 | COc1ccc2nc(NC(=O)Cc3nn(C(C)C)c4cc(C(F)(F)F)ccc4c3=O)nn2c1 [F-119]
52 | 990 | > 20 | O=C(Cc1nn(C2CC2)c2cc(C3CC3)ccc2c1=O)Nc1cn2cnnc2cn1 [F-109]
53 | 2450 | 17.1 | CC(C)n1nc(NC(=O)Nc2ccc3nncn3c2)c(=O)c2ccc(C(F)(F)F)cc21 [F-150, 1-([1,2,4]triazolo[4,3-a]pyridin-6-yl)-3-(1-isopropyl-4-oxo-7-(trifluoromethyl)-1,4-dihydrocinnolin-3-yl)urea]
54 | 1140 | > 20 | CCn1nc(CC(=O)N[C@H]2C[C@@](C)(O)C2)c(=O)c2ccc(C3CC3)cc21 [F-83]
55 | 4350 | > 20 | CC(C)n1nc(CC(=O)Nc2nc3cccnc3o2)c(=O)c2ccc(C(F)(F)F)cc21 [F-127]
56 | 48 | > 20 | CC(C)n1nc(CC(=O)Nc2ccc3nncn3n2)c(=O)c2ccc(Br)cc21 [F-134]
57 | 160 | 15.6 | CC(C)n1nc(CC(=O)Nc2ccc3nncn3n2)c(=O)c2ccc(C3CC3)cc21 [F-133, N-([1,2,4]triazolo[4,3-b]pyridazine-6-yl)-2-(7-cyclopropyl-1-isopropyl-4-oxo-1,4-dihydrocinnolin-3-yl)acetamide]
58 | 11600 | > 20 | CC(C)n1nc(CC(=O)Nc2nc3nccc(C4CC4)n3n2)c(=O)c2ccc(C(F)(F)F)cc21 [F-120]

Reference: patent US20230391756A1, “NEW COMPOUND” (JANSSEN PHARMACEUTICA NV, priority 2020, published 2023)
